Test results from patent US20250059172A1, “INDAZOLE COMPOUND AND PHARMACEUTICAL” (NIPPON SHINYAKU CO., LTD., priority 2021, published 2025).
Structures can show the parent of a compound that is named as a salt.

How the values were obtained:
[1] = molecular target: human mPGES-1 (Homo sapiens (Human), UniProt O14684); experiment: mPGES-1 inhibitory activity test; assay type: biochemical; details: microsomes of CHO-K1 cells expressing human mPGES-1, PGH2 1 μM, PGE2 by HTRF; read-out: mPGES-1 inhibition (IC50 nM)
Procedure, shortened: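 PGE2 formation was quantified by HTRF and reported as percent inhibition at 10 and 100 nM compound or as IC50. The 60-second reaction at 4° C used 1 μM PGH2, after a 20-minute 4° C preincubation of compound (1% DMSO final) with glutathione-supplemented (2.5 mM, pH 7.4) microsomes. The microsomes were from transiently transfected CHO-K1 cells expressing human mPGES-1.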

[2] = test system: human A549 cells; experiment: Inhibition test of PGE2 production using human A549 cells; assay type: cell-based; details: IL-1β stimulated A549 cells, 24 h, PGE2 by HTRF, read-out: A549 cell inhibition of PGE2 production IC50
Procedure, shortened: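 PGE2 (HTRF) and PGF2a (EIA) were quantified in medium after 24 h, 37°C IL-1β stimulation (5 ng/well) of human A549 cells that had received test compound 60 min beforehand (0.1% DMSO, 3% FBS RPMI). IC50 relative to the window between IL-1β-stimulated and unstimulated controls.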

Chain of human mPGES-1 (O14684 whole entry): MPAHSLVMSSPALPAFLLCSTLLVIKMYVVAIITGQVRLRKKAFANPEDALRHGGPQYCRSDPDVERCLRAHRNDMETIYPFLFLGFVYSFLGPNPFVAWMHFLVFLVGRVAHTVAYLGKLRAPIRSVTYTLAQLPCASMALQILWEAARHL

Row | IC50 [1] [nM] | IC50 [2] [nM] | Structure (SMILES)
1 | 1.1 | 5.2 | CC(C)(C)C(=O)NCc1ccc(Cl)c(C(=O)Nc2cccc3c2cnn3-c2nccs2)c1 [Example 80, 2-Chloro-5-{[(2,2-dimethylpropanoyl)amino]methyl}-N-[1-(1,3-thiazol-2-yl)-1H-indazol-4-yl]benzamide]
2 | 14.9 | 0.3 | CC(C)(C)C(=O)NCc1ccc(Cl)c(C(=O)Nc2cccc3c2cnn3-c2cccc(OC(F)F)c2)c1 [Example 81, 2-Chloro-N-{1-[3-(difluoromethoxy)phenyl]-1H-indazol-4-yl}-5-{[(2,2-dimethylpropanoyl)amino]methyl}benzamide]
3 | 10 | 0.3 | Cc1cc(-n2ncc3c(NC(=O)c4cc(CNC(=O)C(C)(C)C)ccc4Cl)cccc32)ccc1OC(F)(F)F [Example 82, 2-Chloro-5-{[(2,2-dimethylpropanoyl)amino]methyl}-N-{1-[3-methyl-4-(trifluoromethoxy)phenyl]-1H-indazol-4-yl}benzamide]
4 | 1.5 | 5.3 | CC(C)(C)C(=O)NCc1ccc(Cl)c(C(=O)Nc2cccc3c2cnn3-c2cscn2)c1 [Example 83, 2-Chloro-5-{[(2,2-dimethylpropanoyl)amino]methyl}-N-[1-(1,3-thiazol-4-yl)-1H-indazol-4-yl]benzamide]
5 | 0.8 | 4.9 | COC(C)(C)c1ccc(-n2ncc3c(NC(=O)c4cc(CNC(=O)C(C)(C)C)ccc4Cl)cccc32)cn1 [Example 84, 2-Chloro-5-{[(2,2-dimethylpropanoyl)amino]methyl}-N-{1-[6-(2-methoxypropan-2-yl)pyridin-3-yl]-1H-Indazol-4-yl}benzamide hydrochloride]
6 | 8.6 | 6 | CC(C)(C)C(=O)NCc1ccc(Cl)c(C(=O)Nc2cccc3c2cnn3-c2ccc(C(C)(C)F)nc2)c1 [Example 85, 2-Chloro-5-{[(2,2-dimethylpropanoyl)amino]methyl}-N-{1-[6-(2-fluoropropan-2-yl)pyridin-3-yl]-1H-indazol-4-yl}benzamide]
7 | 15.7 | 101 | CCOCc1ccc(-n2ncc3c(NC(=O)c4cc(CNC(=O)C(C)(C)C)ccc4Cl)cccc32)cn1 [Example 86, 2-Chloro-5-{[(2,2-dimethylpropanoyl)amino]methyl}-N-{1-[6-(ethoxymethyl)pyridin-3-yl]-1H-indazol-4-yl}benzamide hydrochloride]
8 | 4.7 | 72 | Cc1ccc(-n2ncc3c(NC(=O)c4cc(CNC(=O)C(F)(F)F)ccc4Cl)cccc32)cn1 [Example 87, 2-Chloro-N-[1-(6-methylpyridin-3-yl)-1H-indazol-4-yl]-5-{[(trifluoroacetyl)amino]methyl}benzamide hydrochloride]
9 | 3.5 | 20.7 | COc1cccc(Cn2ncc3c(NC(=O)c4cc(CNC(=O)C(C)(C)C)ccc4Cl)cccc32)c1 [Example 89, 2-Chloro-5-{[(2,2-dimethylpropanoyl)amino]methyl}-N-[1-(3-methoxybenzyl)-1H-indazol-4-yl]benzamide]
10 | 2.2 | 17.7 | COc1ccccc1Cn1ncc2c(NC(=O)c3cc(CNC(=O)C(C)(C)C)ccc3Cl)cccc21 [Example 90, 2-Chloro-5-{[(2,2-dimethylpropanoyl)amino]methyl}-N-[1-(2-methoxybenzyl)-1H-indazol-4-yl]benzamide]
11 | < 1 | 5.1 | Cc1cc(C)c(Cn2ncc3c(NC(=O)c4cc(CNC(=O)C(C)(C)C)ccc4Cl)cccc32)c(C)c1 [Example 91, 2-Chloro-5-{[(2,2-dimethylpropanoyl)amino]methyl}-N-[1-(2,4,6-trimethylbenzyl)-1H-indazol-4-yl]benzamide]
12 | 5.4 | 4.2 | CC(C)(C)C(=O)NCc1ccc(Cl)c(C(=O)Nc2cccc3c2cnn3Cc2ccc(C(F)(F)F)cc2)c1 [Example 92]
13 | 10 | 9.2 | CC(C)(C)C(=O)NCc1ccc(Cl)c(C(=O)Nc2cccc3c2cnn3Cc2cccc(C(F)(F)F)c2)c1 [Example 94, 2-Chloro-5-{[(2,2-dimethylpropanoyl)amino]methyl}-N-{1-[3-(trifluoromethyl)benzyl]-1H-indazol-4-yl}benzamide]
14 | 1.2 | 2.7 | CC(C)(C)C(=O)NCc1ccc(Cl)c(C(=O)Nc2cccc3c2cnn3CCc2ccccc2)c1 [Example 95, 2-Chloro-5-{[(2,2-dimethylpropanoyl)amino]methyl}-N-[1-(2-phenylethyl)-1H-indazol-4-yl]benzamide]
15 | 0.7 | 5.3 | CC(C)(C)C(=O)NCc1ccc(Cl)c(C(=O)Nc2cccc3c2cnn3C2CCCC2)c1 [Example 97, 2-Chloro-N-(1-cyclopentyl-1H-indazol-4-yl)-5-{[(2,2-dimethylpropanoyl)amino]methyl}benzamide]
16 | 9 | 1.6 | CC(C)(C)C(=O)NCc1ccc(Cl)c(C(=O)Nc2cccc3c2cnn3C2CCCCC2)c1 [Example 98, 2-Chloro-N-(1-cyclohexyl-1H-indazol-4-yl)-5-{[(2,2-dimethylpropanoyl)amino]methyl}benzamide]
17 | 1.3 | 4.1 | CC(C)(C)C(=O)NCc1ccc(Cl)c(C(=O)Nc2cccc3c2cnn3CC2CCC2)c1 [Example 99, 2-Chloro-N-[1-(cyclobutylmethyl)-1H-indazol-4-yl]-5-{[(2,2-dimethylpropanoyl)amino]methyl}benzamide]
18 | 1 | 1.9 | CC(C)(C)C(=O)NCc1ccc(Cl)c(C(=O)Nc2cccc3c2cnn3CC2CCCCC2)c1 [Example 100, 2-Chloro-N-[1-(cyclohexylmethyl)-1H-indazol-4-yl]-5-{[(2,2-dimethylpropanoyl)amino]methyl}benzamide]
19 | 4.7 | 8.1 | CC(C)(C)C(=O)NCc1ccc(Cl)c(C(=O)Nc2cccc3c2cnn3CCCc2ccccc2)c1 [Example 101, 2-Chloro-5-{[(2,2-dimethylpropanoyl)amino]methyl}-N-[1-(3-phenylpropyl)-1H-indazol-4-yl]benzamide]
20 | 3.1 | 20.7 | CC(C)n1ncc2c(NC(=O)c3cc(CNC(=O)C(C)(C)C)ccc3Cl)cccc21 [Example 102, 2-Chloro-5-{[(2,2-dimethylpropanoyl)amino]methyl}-N-[1-(propan-2-yl)-1H-indazol-4-yl]benzamide]
21 | 2.7 | 4 | CC(C)(C)OC(=O)N1CCC(n2ncc3c(NC(=O)c4cc(CNC(=O)C(C)(C)C)ccc4Cl)cccc32)CC1 [Example 103, tert-Butyl 4-(4-{[(2-chloro-5-{[(2,2-dimethylpropanoyl)amino]methyl}phenyl)carbonyl]amino}-1H-indazol-1-yl)piperidine-1-carboxylate]
22 | 99.9 | 80.6 | CC(C)(C)C(=O)NCc1ccc(Cl)c(C(=O)Nc2cccc3c2cnn3C2CCOCC2)c1 [Example 104, 2-Chloro-5-{[(2,2-dimethylpropanoyl)amino]methyl}-N-[1-(tetrahydro-2H-pyran-4-yl)-1H-indazol-4-yl]benzamide]
23 | 1.3 | 11.1 | CC(C)(C)C(=O)NCc1ccc(Cl)c(C(=O)Nc2cccc3c2cnn3CC2CCCCO2)c1 (stereo not shown) [Example 105, 2-Chloro-5-{[(2,2-dimethylpropanoyl)amino]methyl}-N-[1-(tetrahydro-2H-pyran-2-ylmethyl)-1H-indazol-4-yl]benzamide]
